# Non-standard residues stand in square brackets, D forms with d. Residues, ends and D or L forms follow the SMILES beside them. *: point of attachment. Acetyl(1-naphthyl) = O=C(Cc1cccc2ccccc12)*; dHpg = N[C@@H](C(=O)O)c1ccc(O)cc1; Hpg = N[C@H](C(=O)O)c1ccc(O)cc1; Pra = C#CC[C@H](N)C(=O)O; X1 = O=C(Cc1ccc(O)cc1)*; ClAc = O=C(CCl)*
# Target: N-terminal methyltransferase1 (NTMT1) (Homo sapiens (Human), UniProt Q9BV86)
# Assay: NTMT1 inhibition IC50, SAH hydrolase-coupled fluorescence assay
# Type: biochemical
# Settings: not given
# Procedure: The inhibitors ranging in concentration from (2 μL of 0.14 μM-1 mM) and following a three-fold dilution were incubated with 0.2 μM NTMT1 with a reaction mixture which was added in the following order: H2O, 10× Tris-HCl Buffer (2 μL of 250 mM Tris pH 7.4, 100 mM NaCl, and 500 mM KCl), SAH hydrolase (1 μL of 100 μM), SAM (0.2 μL of 10 mM), NTMT1 (1 μL of 4 μM) and ThioGlo1 (0.2 μL of 1.5 mM DMSO solution). After 10 mins of incubation at 37° C., the reaction was initiated with 1 μM of GPKRIA. Fluorescence intensity was monitored using a BMG ClarioStar microplate reader (Ex=380 nm, Em=510 nm) at 37° C. for 15 min. The rates were fit to the log[inhibitor] vs response model using least squares nonlinear regression through GraphPad Prism 7 software. All experiments were performed in triplicate.
# Chain of N-terminal methyltransferase1 (NTMT1) (Q9BV86 1-222): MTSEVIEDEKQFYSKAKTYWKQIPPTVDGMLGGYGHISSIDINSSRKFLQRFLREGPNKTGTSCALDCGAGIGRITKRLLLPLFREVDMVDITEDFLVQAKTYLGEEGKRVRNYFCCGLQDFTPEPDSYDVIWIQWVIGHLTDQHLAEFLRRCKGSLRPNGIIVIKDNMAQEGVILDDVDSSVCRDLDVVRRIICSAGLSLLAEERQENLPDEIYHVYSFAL
row,IC50 [nM],SMILES
1,400 ± 30,"N=C(N)NCCC[C@H](NC(=O)[C@H](CCCCN)NC(=O)[C@@H]1CCCN1C(=O)Cc1cccc2ccccc12)C(N)=O [Compound 1, (S)—N—((S)-6-amino-1-(((S)-1-amino-5-guanidino-1-oxopentan-2-yl)amino)-1-oxohexan-2-yl)-1-(2-(naphthalen-1-yl)acetyl)pyrrolidine-2-carboxamide]"
2,95 ± 26,N=C(N)NCCC[C@H](NC(=O)[C@H](CCCCN)NC(=O)[C@@H]1CCCN1C(=O)Cc1cccc2ccccc12)C(=O)N[C@@H](Cc1c[nH]c2ccccc12)C(N)=O [Compound 43] ({Acetyl(1-naphthyl)}-PKRW-NH2)
3,79 ± 13,"N=C(N)NCCC[C@H](NC(=O)[C@H](CCCCN)NC(=O)[C@@H]1CCCN1C(=O)Cc1cccc2ccccc12)C(=O)N[C@@H](Cc1ccc(O)cc1)C(N)=O [Compound 44, (S)—N—((S)-6-amino-1-(((S)-1-(((S)-1-amino-3-(4-hydroxyphenyl)-1-oxopropan-2-yl)amino)-5-guanidino-1-oxopentan-2-yl)amino)-1-oxohexan-2-yl)-1-(2-(naphthalen-1-yl)acetyl)pyrrolidine-2-carboxamide] ({Acetyl(1-naphthyl)}-PKRY-NH2)"
4,> 100000,"N=C(N)NCCC[C@H](NC(=O)[C@H](CCCCN)NC(=O)[C@@H]1CCCN1C(=O)[C@@H](NCCc1ccc(O)cc1)c1ccc(O)cc1)C(N)=O [Compound 47, (S)—N—((S)-6-amino-1-(((S)-1-amino-5-guanidino-1-oxopentan-2-yl)amino)-1-oxohexan-2-yl)-1-((S)-2-((4-hydroxyphenethyl)amino)-2-(4-hydroxyphenyl)acetyl)pyrrolidine-2-carboxamide]"

# Further lines, the compound ahead of its results:
row,SMILES,IC50 [nM]
1,"N=C(N)NCCC[C@H](NC(=O)[C@H](CCCCN)NC(=O)[C@@H]1CCCN1C(=O)/C=C/c1ccc(O)cc1)C(N)=O [Compound 17, (S)—N—((S)-6-amino-1-(((S)-1-amino-5-guanidino-1-oxopentan-2-yl)amino)-1-oxohexan-2-yl)-1-((E)-3-(4-hydroxyphenyl)acryloyl)pyrrolidine-2-carboxamide]",2500
2,"N=C(N)NCCC[C@H](NC(=O)[C@H](CCCCN)NC(=O)[C@@H]1CCCN1C(=O)[C@H](NC(=O)Cc1ccc(O)cc1)c1ccc(O)cc1)C(N)=O [Compound 21, (S)—N—((S)-6-amino-1-(((S)-1-amino-5-guanidino-1-oxopentan-2-yl)amino)-1-oxohexan-2-yl)-1-((R)-2-(4-hydroxyphenyl)-2-(2-(4-hydroxyphenyl)acetamido)acetyl)pyrrolidine-2-carboxamide] (X1-[dHpg]PKR-NH2)",> 100000
3,"N=C(N)NCCC[C@H](NC(=O)[C@H](CCCCN)NC(=O)[C@@H]1CCCN1C(=O)[C@@H](NC(=O)Cc1ccc(O)cc1)c1ccc(O)cc1)C(N)=O [Compound 22, (S)—N—((S)-6-amino-1-(((S)-1-amino-5-guanidino-1-oxopentan-2-yl)amino)-1-oxohexan-2-yl)-1-((S)-2-(4-hydroxyphenyl)-2-(2-(4-hydroxyphenyl)acetamido)acetyl)pyrrolidine-2-carboxamide] (X1-[Hpg]PKR-NH2)",> 100000
4,"N=C(N)NCCC[C@H](NC(=O)[C@H](CCCCN)NC(=O)[C@@H]1CCCN1C(=O)[C@H](NCCc1ccc(O)cc1)c1ccc(O)cc1)C(N)=O [Compound 23, (S)—N—((S)-6-amino-1-(((S)-1-amino-5-guanidino-1-oxopentan-2-yl)amino)-1-oxohexan-2-yl)-1-((R)-2-((4-hydroxyphenethyl)amino)-2-(4-hydroxyphenyl)acetyl)pyrrolidine-2-carboxamide]",> 100000
5,"CC[C@H](C)[C@H](NC(=O)[C@H](CCCNC(=N)N)NC(=O)[C@H](CCCCN)NC(=O)[C@@H]1CCCN1C(=O)Cc1cccc2ccccc12)C(N)=O [Compound 24, (S)—N—((S)-6-amino-1-(((S)-1-(((2S,3S)-1-amino-3-methyl-1-oxopentan-2-yl)amino)-5-guanidino-1-oxopentan-2-yl)amino)-1-oxohexan-2-yl)-1-(2-(naphthalen-1-yl)acetyl)pyrrolidine-2-carboxamide] ({Acetyl(1-naphthyl)}-PKRI-NH2)",60
6,"N=C(N)NCCC[C@H](NC(=O)[C@H](CCCNC(=N)N)NC(=O)[C@H](CCCCN)NC(=O)[C@@H]1CCCN1C(=O)Cc1cccc2ccccc12)C(N)=O [Compound 25, (S)—N—((S)-6-amino-1-(((S)-1-(((S)-1-amino-5-guanidino-1-oxopentan-2-yl)amino)-5-guanidino-1-oxopentan-2-yl)amino)-1-oxohexan-2-yl)-1-(2-(naphthalen-1-yl)acetyl)pyrrolidine-2-carboxamide] ({Acetyl(1-naphthyl)}-PKRR-NH2)",40
7,"C#CC[C@H](NC(=O)[C@H](CCCNC(=N)N)NC(=O)[C@H](CCCCN)NC(=O)[C@@H]1CCCN1C(=O)Cc1cccc2ccccc12)C(N)=O [Compound 26, (S)—N—((S)-6-amino-1-(((S)-1-(((S)-1-amino-1-oxopent-4-yn-2-yl)amino)-5-guanidino-1-oxopentan-2-yl)amino)-1-oxohexan-2-yl)-1-(2-(naphthalen-1-yl)acetyl)pyrrolidine-2-carboxamide] ({Acetyl(1-naphthyl)}-PKR[Pra]-NH2)",90

# Same assay, conditions: 0.2 μM NTMT1, 1 μM GPKRIA peptide substrate, 37° C., ThioGlo1 fluorescence
row,IC50 [nM],SMILES
1,68,"N=C(N)NCCC[C@H](NC(=O)[C@H](CCCNC(=N)N)NC(=O)[C@H](CCCNC(=N)N)NC(=O)[C@H](CCCNC(=N)N)NC(=O)[C@H](CCCNC(=N)N)NC(=O)[C@H](CCCNC(=N)N)NC(=O)[C@H](CCCCN)NC(=O)[C@@H]1CCCN1C(=O)Cc1cccc2ccccc12)C(N)=O [Compound 34, (S)—N-((6S,9S,12S,15S,18S,21S,24S)-1,28-diamino-6-carbamoyl-9,12,15,18,21-pentakis(3-guanidinopropyl)-1-imino-8,11,14,17,20,23-hexaoxo-2,7,10,13,16,19,22-heptaazaoctacosan-24-yl)-1-(2-(naphthalen-1-yl)acetyl)pyrrolidine-2-carboxamide] ({Acetyl(1-naphthyl)}-PKRRRRRR-NH2)"
2,5760,"NCCCC[C@H](NC(=O)[C@@H]1CCCN1C(=O)Cc1cccc2ccccc12)C(=O)N[C@@H](CCC(=O)O)C(N)=O [Compound 39, (S)-5-amino-4-((S)-6-amino-2-((S)-1-(2-(naphthalen-1-yl)acetyl)pyrrolidine-2-carboxamido)hexanamido)-5-oxopentanoic acid]"

# The remaining lines, values behind:
row,SMILES,IC50 [nM]
1,"N=C(N)NCCC[C@H](NC(=O)[C@H](CCCCN)NC(=O)[C@@H]1CCCN1C(=O)Cc1cccc2[nH]ccc12)C(N)=O [Compound 4, (S)-1-(2-(1H-indol-4-yl)acetyl)-N—((S)-6-amino-1-(((S)-1-amino-5-guanidino-1-oxopentan-2-yl)amino)-1-oxohexan-2-yl)pyrrolidine-2-carboxamide]",160 ± 70
2,"NCCCC[C@H](NC(=O)CN(C(=O)Cc1cccc2ccccc12)C1CCCC1)C(N)=O [Compound 10, (S)-6-amino-2-(2-(N-cyclopentyl-2-(naphthalen-1-yl)acetamido)acetamido)hexanamide]",> 100000
3,"NCCCC[C@H](NC(=O)c1cn(CC(=O)Nc2ccccc2)nn1)C(N)=O [Compound 11, (S)—N-(1,6-diamino-1-oxohexan-2-yl)-1-(2-oxo-2-(phenylamino)ethyl)-1H-1,2,3-triazole-4-carboxamide]",> 100000
4,"N=C(N)NCCC[C@H](NC(=O)[C@H](CCCCN)NC(=O)[C@@H]1CCCN1C(=O)[C@@H]1CCCN1C(=O)CCl)C(=O)O [Compound 12, (2-chloroacetyl)-L-prolyl-L-prolyl-L-lysyl-L-arginine] (ClAc-PPKR-OH)",16000 ± 5900
5,"N=C(N)NCCC[C@H](NC(=O)[C@H](CCCCN)NC(=O)[C@@H]1CCCN1C(=O)Cc1ccc(CO)cc1)C(N)=O [Compound 18, (S)—N—((S)-6-amino-1-(((S)-1-amino-5-guanidino-1-oxopentan-2-yl)amino)-1-oxohexan-2-yl)-1-(2-(4-(hydroxymethyl)phenyl)acetyl)pyrrolidine-2-carboxamide]",1500
6,"N=C(N)NCCC[C@H](NC(=O)[C@H](CCCNC(=N)N)NC(=O)[C@H](CCCNC(=N)N)NC(=O)[C@H](CCC(N)=O)NC(=O)[C@H](CCCNC(=N)N)NC(=O)[C@H](CCCNC(=N)N)NC(=O)[C@H](CCCCN)NC(=O)[C@H](CCCCN)NC(=O)[C@H](CCCNC(=N)N)NC(=O)CNC(=O)[C@H](CCCNC(=N)N)NC(=O)[C@H](CCCCN)NC(=O)[C@@H]1CCCN1C(=O)Cc1ccc(O)cc1)C(=O)O [Compound 32, (2-(4-hydroxyphenyl)acetyl)-L-prolyl-L-lysyl-L-arginylglycyl-L-arginyl-L-lysyl-L-lysyl-L-arginyl-L-arginyl-L-glutaminyl-L-arginyl-L-arginyl-L-arginine]",230 ± 30

# Reference: patent US12479887B2, “Inhibitors for protein n-terminal methyltransferase and uses thereof” (Purdue Research Foundation, priority 2018, dated 2025)
